{
  "source": "patent US10208007B2",
  "about": "“Use of strigolactones and strigolactone analogs for treating proliferative conditions” (The State of Israel, Ministry of Agriculture & Rural …, priority 2011, dated 2019)",
  "key": {"[1]": {"test_system": "P38", "assay": "Immunoblot of HSP27 phosphorylation with P38 inhibitor", "assay_type": "cell-based, human", "settings": "MDA-231 cells, 2 μM and 10 μM, 1 hour pretreatment"}, "[2]": {"test_system": "MDA-231 cells", "assay": "Combination with cisplatin, Combination Index (Chou and Talalay)", "assay_type": "cell-based, human", "settings": "cisplatin line of Table 8", "procedure": "To determine if these concentrations of ST-362 can enhance the efficacy of low doses of cisplatin, MDA-231 cells were treated with varying concentrations of cisplatin in the presence of ST-362 IC50 and IC20 concentrations. The combination of ST-362 with low doses of cisplatin ranging for 0.01 to 0.1 μM produced a greater effect than each of the drugs alone (FIG. 20)."}, "[3]": {"test_system": "MCF10A", "settings": "3 days", "method": "Results are presented as Average±SD of replicate analyses and are either representative of, or inclusive of at least two independent experiments. Statistical analyses were performed using student's t-test (2-tailed, paired) versus vehicle controls and are regarded as being significant when P<0.05(*). Higher powers (p<0.01, p<0.001) are also employed and indicated in each figure legend. IC50 doses for strigolactone analogs were calculated by interpolation of the sigmoidal dose response curves (Graphpad Prism 4.0 software). Briefly, linear regression was performed between relevant y-axis data points and interpolation calculated for x-axis unknowns.\nCells were seeded into a 96 well plates at 1500 cells per well (MCF-10, PC3, DU145, MDA-MB-231, MDA-MB-436, HT-29, SW480), 1000 cells per well (K562) or 4000 cells per well (MCF-7, HCT116) in triplicate in normal growing media (with the exception of K562, a non-adherent leukemic cell line which was seeded in phenol-free DMEM supplemented with 10% charcoal-stripped FBS). The following day media was replaced with phenol-free DMEM supplemented with 10% charcoal stripped FBS and the indicated final concentrations of strigolactone analog or vehicle (acetone) alone. Cells were incubated for 3 days, at which time XTT (2,3,-bis(2-methoxy-4-nitro-5-sulfophenyl)-5-[(phenylamino)-carbonyl]-2H-tetrazolium inner salt) reduction was used to quantify viability according to manufacturer's instruction (ATCC). Cells were incubated with XTT reagent for 2-3 hours at 37° C. in a humidified 5% CO2-95% air atmosphere. Absorbance was recorded by a photometer [sequence]luor Plus, Tecan (Salzburg, Austria) at 450 nm with 750 nm of reference wavelength. Cell survival was estimated from the equation: % cell survival=100×(At−Ac), where At and Ac are the absorbencies (450 nm) of the XTT colorimetric reaction (ATCC) in treated and control cultures respectively minus non-specific absorption measured at 750 nm. Absorbance of medium alone was also deducted from specific readings.\nMCF-10A cells were included as an example of a non-tumorigenic line. XTT viability assays were carried out in the presence of the indicated doses of strigolactone analogs following 3 days of treatment. Resulting differences in absorbance readings following strigolactone analogs treatment reflect changes in proliferation and cell survival (FIG. 7A-C): Cells were seeded into 96 well plates in normal growing media. The following day media was replaced with phenol-free DMEM supplemented with 10% charcoal-stripped serum and the indicated doses of strigolactone analog or vehicle (cont.) alone. Viability was assayed after 3 days (XTT, ATCC)."}, "[4]": {"test_system": "SW480", "assay": "XTT viability assay", "assay_type": "cell-based, human", "settings": "SW480, 3 days", "procedure": "(§1) Viability was assayed after 3 days (XTT, ATCC). IC50 concentrations are indicated (Table 3 above)."}, "[5]": {"test_system": "HCT116", "assay": "XTT viability assay", "assay_type": "cell-based, human", "settings": "HCT116, 3 days", "procedure": "as §1"}, "[6]": {"test_system": "HT-29", "assay": "XTT viability assay", "assay_type": "cell-based, human", "settings": "HT-29, 3 days", "procedure": "as §1"}, "[7]": {"test_system": "K562", "assay": "XTT viability assay", "assay_type": "cell-based, human", "settings": "K562, 3 days", "procedure": "as §1"}, "[8]": {"test_system": "U20S", "assay": "XTT viability assay", "assay_type": "cell-based, human", "settings": "3 days", "procedure": "as §1"}, "[9]": {"test_system": "T47D", "assay": "XTT viability assay", "assay_type": "cell-based, human", "settings": "3 days", "procedure": "as §1"}, "[10]": {"test_system": "LNCaP", "assay": "XTT viability assay", "assay_type": "cell-based, human", "settings": "3 days", "procedure": "as §1"}, "[11]": {"test_system": "MCF-7", "assay": "XTT viability assay", "assay_type": "cell-based, human", "settings": "MCF-7, 3 days", "procedure": "as §1"}, "[12]": {"test_system": "DU145", "assay": "XTT viability assay", "assay_type": "cell-based, human", "settings": "DU145, 3 days", "procedure": "as §1"}, "[13]": {"test_system": "PC3", "assay": "XTT viability assay", "assay_type": "cell-based, human", "settings": "PC3, 3 days", "procedure": "as §1"}, "[14]": {"test_system": "MDA-MB-436", "assay": "XTT viability assay", "assay_type": "cell-based, human", "settings": "MDA-MB-436, 3 days", "procedure": "as §1"}, "[15]": {"test_system": "MDA-MB-231", "assay": "XTT viability assay", "assay_type": "cell-based, human", "settings": "MDA-MB-231, 3 days", "procedure": "as §1"}, "[16]": {"test_system": "cancer derived cell lines", "assay": "XTT viability assay, all cell lines tested", "assay_type": "cell-based, human", "settings": "span over the cell lines", "procedure": "MCF-10A cells were used as non-tumorigenic line and various cell lines derived from other types of solid tumors were compiled including colon (HCT116, HT29, SW480), prostate (PC3, DU145, LNCaP), lung (A549), osteosarcoma (U20S) and Melanoma (T11) cell lines. A non-adherent leukemic cancer cell line, K562, was also included to further diversify the cohort (FIG. 7).\nas §1"}, "[17]": {"test_system": "MCF-7 mammospheres", "assay": "Mammosphere formation", "assay_type": "cell-based, human", "settings": "5 ppm and above", "procedure": "Adherent cells were gently trypsinized, (0.05% trypsin/EDTA) washed twice in PBS and filtered through a […] cell sieve to obtain a single cell suspensions. Cells were diluted to a concentration of 10,000 cell/ml in serum-free phenol-red free MEBM (MEGM Bulletkit, Lonza) supplemented with 5 μg/ml bovine insulin, 20 ng/ml recombinant epidermal growth factor, 20 ng/ml basic fibroblast growth factor (Gibco), 1×B27 supplement, 0.5 μg/ml hydrocortisone (MEGM Bulletkit, Lonza). For MDA-MB-231 mammosphere cultures serum-free phenol red-free CnT-27 medium with growth additives (CellnTEC Advanced cell systems, Bern, Switzerland) was used as previously described. 0.1 ml was seeded per well of a Ultralow attachment 96 well plates. The following day the indicated doses of GR-24 (ppm) or vehicle alone (0.6% acetone f/c) were added. Media was replenished every 3-4 days. Self-renewal capacity of the mammospheres was determined by re-plating and producing further generations of mammospheres. Secondary mammospheres were cultivated by dissociation (trypsinization with gently vortexing) of 10-14 day old primary mammospheres. Single cell suspensions were obtained as described above.\n(§2) Given the similar effects the other strigolactone analogs had on breast cancer cell line growth compared to GR-24, we anticipated that the strigolactone analogs would also have similar effects on MCF-7 primary mammosphere formation (FIG. 10): MCF-7 cells were seeded in MEBM media into low attachment, 96 well plates in duplicate at 3000 cells per well. The same day the indicated doses of strigolactone analogs were added. After 7 days representative images were taken. […] Like GR-24, the doses required to inhibit mammosphere formation are lower than that required to inhibit proliferation in monolayer cultures (5 fold lower; ST-362 and MEB-55, 3 fold lower; ST-357). To determine if the sensitivity to strigolactone analogs treatments was specific to mammosphere formation or whether it extended to the integrity and survival of mature mammospheres, MCF-7 mammospheres were grown in the absence of strigolactone analogs and after 7 days (or once mammospheres had reached a mean diameter of over […]), strigolactone analogs were added to the growth media (FIG. 10) at the indicated doses. MCF-7 cells were seeded in MEBM media into low attachment, 96 well plates in duplicate at 3000 cells per well and primary mammospheres left to grow for 7 days. At which time the indicated doses of strigolactone analogs were added to the media. FIG. 11A is a representative image of mammospheres treated with 5 ppm concentrations, showing dissociation after 2 days of exposure to strigolactone analogs. […] Following […] treatment, mammospheres were monitored visually after 24 and 48 hours. No changes were observed following 24 hours of strigolactone analogs treatment. […] At 5 ppm concentrations EG-5, EG-9C, ST-357, ST-362 and MEB-55 reduce mammosphere numbers from 86.7+6.8 (vehicle control) to 23+5, 38+6.2, 6+2, 8.3+3.5 and 9.3+1.5%, respectively. At 2.5 ppm concentrations, mammosphere numbers were reduced to 35+6.9 (EG-5), 52+12.3 (EG-9C), 22+8.5 (ST-357), 6+1.7 (ST-362) and 20.7+8.6 (MEB-55). […] XTT viability assays were also carried out on dissociated mammospheres. At concentrations of 5 ppm, EG-5, ST-362 and MEB-55 reduced viability to 3.7+0.5, 25.5+8.8 and 4.6+1.1% respectively."}, "[18]": {"test_system": "MCF-7 mammospheres", "assay": "cells", "assay_type": "cell-based, human", "settings": "for Mammosphere numbers (>100 μM), percentage of vehicle treated control: 5 days", "procedure": "as §2"}, "[19]": {"test_system": "HCT116 cells", "assay": "Annexin V / PI staining", "assay_type": "cell-based, human", "settings": "48 hours, from 3.6%", "procedure": "Cells were cultured for 48 hours under the same conditions as those used for the DNA content/cell cycle analysis. All the cells were collected and resuspended in 100 μl 1× Annexin V Binding Buffer (BD Biosciences, San Jose, Calif., USA). 2 μl FITC-Annexin V (BD Biosciences) was added and incubated for 10 min in the dark (room temperature). Cells were then stained with PI (Sigma, Saint Louis, Mo., USA) to a final concentration of 5 μg/ml and the cells were incubated at room temperature for 15 min in the dark. Then, 400 μl of Annexin V binding buffer were added and flow cytometry was performed using a BD FACSCalibur flow cytometer. Cells were considered to be apoptotic if they were Annexin V+/PI− (early apoptotic) and Annexin V+/PI+ (late apoptotic). Each analysis was performed using at least 20,000 events.\nChromosome condensation at mitosis is accompanied by phosphorylation of histone H3. Accordingly, in order to determine if cells were arresting at G2 or M phase, HCT116 cells were analyzed for pS10 Histone H3 following strigolactone analogs exposure. […] To further quantify whether the growth inhibition observed in-vitro following strigolactone treatment was due in part to apoptosis, HCT116 cells were dual stained with Annexin V and PI (Prodidium Iodide). Annexin V staining indicate the inversion of the inner leaflet of the plasma membrane an early event of apoptosis. Late apoptosis is characterized by loss of membrane integrity and cells become permeable to PI. […] Cells were incubated for 48 hours and then co-stained with annexin-V and PI (FIG. 12F). Following treatment with 10 ppm and 15 ppm MEB-55, the percentage of late apoptotic cell increased from 3.6% to 62% and 85% respectively (FIG. 12F, lower panel). […] Dual Annexin V/PI staining analysis was also carried out on two other colon cancer cell lines, (SW480, HT29) following strigolactone treatment. Increased apoptosis was also observed in these lines following MEB-55 treatment in a dose dependent manner (FIG. 12D)."}},
  "data": [
    {"smiles": "C[S+]([O-])c1ccc(-c2nc(-c3ccncc3)c(-c3ccc(F)cc3)[nH]2)cc1", "note": "(stereo not shown) [SB203580]", "values": [
      {"measurement": "HSP27 phosphorylation induced by ST-362 and MEB-55", "setting": "[1]", "value": "sufficient to inhibit HSP27 phosphorylation"}
    ]},
    {"smiles": "N.N.[Cl][Pt][Cl]", "note": "[Cisplatin, cisplatin]", "values": [
      {"measurement": "CI", "setting": "[2]", "value": 0.8}
    ]},
    {"smiles": "CC1=CC(O/C=C2\\Cc3c(n(C)c4ccc(-c5ccc(N(C)C)cc5)cc34)C2=O)OC1=O", "note": "(racemic) [EG-9c, (±) (2E)-4-methyl-2-(4-methyl-5-oxo-2,5-dihydrofuran-2-yloxymethylene)-7-[(4-dimethylamino)-phenyl]-1,4-dihydro-2H-cyclopenta[b]indol-3-one]", "values": [
      {"measurement": "IC50 at 72 h", "setting": "[3]", "value": ">15", "unit": "ppm"},
      {"measurement": "IC50 at 72 h", "setting": "[4]", "value": ">15", "unit": "ppm"},
      {"measurement": "IC50 at 72 h", "setting": "[5]", "value": ">15", "unit": "ppm"},
      {"measurement": "IC50 at 72 h", "setting": "[6]", "value": ">15", "unit": "ppm"},
      {"measurement": "IC50 at 72 h", "setting": "[7]", "value": ">15", "unit": "ppm"},
      {"measurement": "IC50 at 72 h", "setting": "[8]", "value": 4.5, "unit": "ppm"},
      {"measurement": "IC50 at 72 h", "setting": "[9]", "value": ">10", "unit": "ppm"},
      {"measurement": "IC50 at 72 h", "setting": "[10]", "value": ">20", "unit": "ppm"},
      {"measurement": "IC50 at 72 h", "setting": "[11]", "value": 17.3, "unit": "ppm"},
      {"measurement": "IC50 at 72 h", "setting": "[12]", "value": 15, "unit": "ppm"},
      {"measurement": "IC50 at 72 h", "setting": "[13]", "value": ">15", "unit": "ppm"},
      {"measurement": "IC50 at 72 h", "setting": "[14]", "value": ">10", "unit": "ppm"},
      {"measurement": "IC50 at 72 h", "setting": "[15]", "value": ">10", "unit": "ppm"},
      {"measurement": "IC50 concentration over all cell lines tested", "setting": "[16]", "value": "10-15 ppm"},
      {"measurement": "Mammosphere formation", "setting": "[17]", "value": "completely block mammosphere formation"},
      {"measurement": "Mammosphere morphology", "setting": "[18]; 2.5-5 ppm, after 48 hours", "value": "less dramatic morphological change"},
      {"measurement": "Mammosphere numbers (>100 μM), percentage of vehicle treated control", "setting": "[18]; 2.5 ppm", "value": "52+12.3%"},
      {"measurement": "Mammosphere numbers (>100 μM), percentage of vehicle treated control", "setting": "[18]; 5 ppm, vehicle control 86.7+6.8", "value": "38+6.2%"},
      {"measurement": "Percentage of late apoptotic cells (Annexin V+/PI+)", "setting": "[19]; 10 ppm", "value": 12.5, "unit": "%"},
      {"measurement": "Percentage of late apoptotic cells (Annexin V+/PI+)", "setting": "[19]; 15 ppm", "value": 43.3, "unit": "%"}
    ]}
  ]
}
